Results published in ChEMBL document CHEMBL1201862, “PubChem BioAssay data set” (2004).
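Tested at 5 concentrations; 48 h exposure; 96-well plates; endpoints linearly interpolated, else capped at highest concentration. GI50 is the concentration that inhibits growth by half.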 Activity calls are given as the source filed them. No stated cut-off is given here; in the data, active = GI50 up to about 1.1 µM and inactive = higher.

How the values were obtained:
Test in all cases: DTP human tumour cell line panel, 48 h
[1] = tested on: LOX IMVI
[2] = tested on: SK-MEL-5
[3] = tested on: CAKI-1
[4] = tested on: UACC-62
[5] = tested on: OVCAR-3
[6] = tested on: HL-60
[7] = tested on: RPMI-8226
[8] = tested on: HT-29
[9] = tested on: SF-539
[10] = tested on: M19-MEL
[11] = tested on: HOP-92
[12] = tested on: SF-295
[13] = tested on: CCRF-CEM
[14] = tested on: OVCAR-8
[15] = tested on: UO-31
[16] = tested on: SN12C
[17] = tested on: ACHN
[18] = tested on: IGROV-1
[19] = tested on: NCI-H226
[20] = tested on: KM12

Measured: GI50

CC(C)C(=O)N1C(=O)O[C@@H](c2ccccc2)[C@H]1C
inactive: [1] > 100 µM | [2] > 100 µM | [3] > 37 µM | [4] > 100 µM | [5] > 100 µM | [6] > 100 µM | [7] > 100 µM | [8] > 100 µM | [9] > 100 µM | [10] > 100 µM | [11] > 100 µM | [12] > 100 µM | [13] > 100 µM | [14] > 100 µM | [15] > 100 µM | [16] > 100 µM | [17] > 100 µM | [18] > 100 µM | [19] > 100 µM | [20] > 100 µM

COC(=O)C(=O)C(C(=O)Nc1cccc(C)c1C)C1Sc2ccccc2NC1=O (centres undefined)
inactive: [1] 13.9 µM | [2] 8.11 µM | [3] > 25 µM | [4] 8.09 µM | [5] 20 µM | [6] 4.89 µM | [7] 9.48 µM | [8] 7.8 µM | [9] 12 µM | [10] 14.6 µM | [11] 10.4 µM | [12] 12.1 µM | [13] > 25 µM | [14] 19.5 µM | [15] > 25 µM | [16] > 25 µM | [17] > 25 µM | [18] 16.8 µM | [19] 16.7 µM | [20] 7.69 µM

COCC1N=C(c2cc(OC)c(OC)c(OC)c2-c2cc3c(cc2[C@@H](C)O)OCO3)O[C@H]1c1ccccc1 (some centres undefined)
inactive: [1] > 100 µM | [2] > 76.7 µM | [3] 99.8 µM | [4] 33.6 µM | [5] 50 µM | [6] > 100 µM | [7] 97.5 µM | [8] 75.9 µM | [9] 77.4 µM | [10] > 90.8 µM | [11] 34.4 µM | [12] 57.7 µM | [13] > 100 µM | [14] > 74.5 µM | [15] > 100 µM | [16] 52.1 µM | [18] > 68.9 µM | [19] > 77.1 µM | [20] > 100 µM
